Results reported in patent publication US20250179531A1, “COMPOSITIONS AND METHODS FOR HOMOLOGY-DIRECTED REPAIR GENE MODIFICATION” (VOR BIOPHARMA INC., priority 2022, published 2025).

Tests used:
Format in all cases: cell-based, human
[1] = tested on: GBA gene; experiment: Editing of the GBA gene in CD34+ cells, ICE analysis of sequencing data
Description: CD34+ cells were electroporated with RNP comprising the designed sgRNAs and with the designed ssODNs. Cells were screened by ICE analysis of sequencing data.
To optimize HDR-mediated editing of the GBA gene loci associated with Gaucher disease, ssODN candidates were screened for their ability to promote high editing efficiencies. Four ssODNs (ssODN1-4) comprising a sequence with a modification to generate the N409S mutation in exon 9 of the GBA gene and two ssODNs (ssODN5 and ssODN6) comprising a sequence with a modification to generate the L483P mutation in exon 10 of the GBA gene were screened. CD34+ cells were electroporated with different combinations of RNPs and ssODNs that corresponded to their respective target sequences, as described above, grown for 2-3 days, and then analyzed for cell viability and by sequencing (FIG. 10A).

[2] = tested on: CCR5 gene; experiment: ICE analysis of sequencing data, Pvu1 site insertion into CCR5 in CD34+ cells; conditions: for HDR-mediated editing efficiency (promoting HDR): CD34+ cells in SCGM with hSCF, FLT3-L, TPO, added to RNP and ssODN, FIG. 4A; for efficiency of HDR in CD34+ cells: SR1 and UM171, in the presence or in the absence of IL-6
Procedure: The presence of the Pvu1 restriction site in the CCR5 locus was also detected by sequencing. Sequencing data was analyzed via inference of CRISPR/Cas9 (ICE) software to quantify the percent of insertion of the 6 nucleotide Pvu1 site.
To determine conditions that would enhance HDR-mediated editing efficiency, the role of media conditions was assessed. CD34+ cells were cultured in stromal cell growth media (SCGM) supplemented with human stem cell factor (hSCF), Fms-like tyrosine kinase 3 Ligand (FLT3-L), and thrombopoietin (TPO) to promote cell differentiation and proliferation. Using ICE analysis of sequencing data to detect Pvu1 restriction site insertion into the CCR5 gene of CD34+ cells, cells were electroporated with DNA repair modulators to skew repair pathway utilization toward HDR following Cas9 cleavage in combination with cell expansion compounds Interleukin-6 (IL6), StemRegenin 1 (SR1), and UM171 in addition to RNP and ssODN. DNA repair modulators investigated included SCR7 (a ligase IV inhibitor), NU7441 (a DNA-PK inhibitor), Rucaparib (a PARP inhibitor), and RS-1 (an HDR enhancer).

[3] = tested on: RAB11a locus; experiment: Flow cytometry of EGFP reporter from capped dsODN integrated at RAB11a in T cells; conditions: 3 μg Cas9, 3 μg RAB11a sgRNA, 1 μg capped dsODN; NU7441 1 μM, SCR7 5 μM, and/or SR1 5 μM in media 24 hours post-electroporation
Description: Two respective capped, dsODNs were designed comprising an EGFP reporter and homology arms to direct integration at either the AAVS1 or RAB11a loci in T cells (FIG. 16A-16B). T cells were electroporated with dsODN and Cas9 RNP as described herein. Flow cytometry analyses were used to confirm EGFP expression in electroporated T cells. Approximately 20% of cells electroporated with capped, AAVS1 dsODN and 38% of cells electroporated with capped, RAB11a dsODN were GFP positive (FIG. 17A).

[4] = tested on: T cells; experiment: T cell viability after electroporation and addition of NHEJ modulators; conditions: NU7441 1 μM, SCR7 5 μM, and/or SR1 5 μM in media 24 hours post-electroporation

Compound: SG1: Cas9 sgRNA to human GBA, position 1226; targeting domain ACAUGGUACAGGAGGUUCUA (SEQ ID NO: 3) (as printed in the source, key not given here)
- editing efficiency of exon 9 of the GBA gene [1]: high editing efficiency

Compound: Cn1nnc(-c2ccc3c(c2)[nH]c2nc(Cc4ccccc4)nc(NC4CCC(N)CC4)c23)n1 (stereo not drawn) [UM171]
- HDR-mediated editing efficiency (promoting HDR) [2]: improved
- efficiency of HDR in CD34+ cells [2]: significantly increase

Compound: O=c1[nH]c(=S)[nH]c(N=Cc2ccccc2)c1N=Cc1ccccc1 [SCR7]
- HDR-mediated editing efficiency (promoting HDR) [2]: no significant advantage
- increase in GFP expression [3]: approximately 10%

Compound: O=c1cc(N2CCOCC2)oc2c(-c3cccc4c3sc3ccccc34)cccc12 [NU7441]
- HDR-mediated editing efficiency (promoting HDR) [2]: no significant advantage
- increase in GFP expression [3]: approximately 10%
- T cell viability [4]: reduced

Compound: SG4: Cas9 sgRNA to human GBA, position 1226; targeting domain CUAGAACCUCCUGUACCAUG (SEQ ID NO: 12) (as printed in the source, key not given here)
- editing efficiency of exon 9 of the GBA gene [1]: high editing efficiency

Compound: SG6: Cas9 sgRNA to human GBA, position 1448; targeting domain UGCCAGUCAGAAGAACGACC (SEQ ID NO: 18) (as printed in the source, key not given here)
- editing efficiency of exon 10 of the GBA gene [1]: high editing efficiency

Compound: SG7: Cas9 sgRNA to human GBA, position 1448; targeting domain GCAUCAGUGCCACUGCGUCC (SEQ ID NO: 21) (as printed in the source, key not given here)
- editing efficiency of exon 10 of the GBA gene [1]: high editing efficiency

Compound: SG2: Cas9 sgRNA to human GBA, position 1226; targeting domain CACAUGGUACAGGAGGUUCU (SEQ ID NO: 6) (as printed in the source, key not given here)
- editing efficiency of exon 9 of the GBA gene [1]: high editing efficiency

Compound: O=C(Nc1ccc(Br)cc1)c1ccc(Br)c(S(=O)(=O)NCc2ccccc2)c1 [RS-1]
- HDR-mediated editing efficiency (promoting HDR) [2]: no significant advantage

Compound: CNCc1ccc(-c2[nH]c3cc(F)cc4c3c2CCNC4=O)cc1 [Rucaparib]
- HDR-mediated editing efficiency (promoting HDR) [2]: no significant advantage

Compound: Interleukin-6 [IL6]
- HDR-mediated editing efficiency (promoting HDR) [2]: improved
- overall editing efficiency ([2]; presence or absence of IL6 in CD34+ cell media, FIG. 4B): did not significantly affect
- HDR ([2]; presence or absence of IL6 in CD34+ cell media, FIG. 4C): did not significantly affect

Compound: CC(C)n1cnc2c(NCCc3ccc(O)cc3)nc(-c3csc4ccccc34)nc21 [SR1, StemRegenin 1]
- HDR-mediated editing efficiency (promoting HDR) [2]: improved
- efficiency of HDR in CD34+ cells [2]: significantly increase
- increase in GFP expression [3]: approximately 10%
- T cell viability [4]: reduced
